Test results reported in patent US20050209157A1, “Short bioactive peptides and methods for their use” (priority 2001, published 2005).
Like-named read-outs stand apart in the source and are kept apart here. No end group written: not given here.

Experiments:
WI38 = conditions: MTT, 24 hours with peptide; normal fibroblast line
[1] = system: Staphylococcus aureus ATCC 6538; experiment: Antimicrobial assay I, MIC by OD measurement; assay type: cell-based; conditions: 37° C. for 24 hours, absorbance 620 nm
[2] = system: Pseudomonas aeruginosa ATCC 9027; experiment: Antimicrobial assay I, MIC by OD measurement; assay type: cell-based; conditions: 37° C. for 24 hours, absorbance 620 nm
MCF7 = experiment: Anti-cancer assay, MTT, LD50; assay type: cell-based; conditions: MCF7 breast adenocarcinoma line, MTT, 24 hours with peptide
Source text: (§1) Numbers are LD50 values (μg/mL).

BMKC = experiment: Anti-cancer assay, MTT, LD50; assay type: cell-based; conditions: BMKC cloned melanoma line, 24 hours with peptide
Source text: as §1

H1299 = experiment: Anti-cancer assay, MTT, LD50; assay type: cell-based; conditions: 24 hours with peptide, lung large cell carcinoma
Source text: as §1

PC3 = experiment: Anti-cancer assay, MTT, LD50; assay type: cell-based; conditions: 24 hours with peptide, prostate adenocarcinoma
Source text: as §1

SW480 = experiment: Anti-cancer assay, MTT, LD50; assay type: cell-based; conditions: SW480 colon adenocarcinoma line, 24 hours with peptide
Source text: as §1

HeLaS3 = experiment: Anti-cancer assay, MTT, LD50; assay type: cell-based; conditions: 24 hours with peptide, cervical carcinoma
Source text: as §1

collagen = experiment: Collagen stimulation, ELISA on fibroblast cell lines; assay type: cell-based
Experimental: Fibroblast cell lines were cultured under standard conditions and assayed for collagen and laminin using an ELISA system manufactured by Panvera (Madison, Wis.). Antibodies for collagen and laminin manufactured by Takara Shuzo Co., Ltd Japan. […] The other three peptides tested neither stimulated nor inhibited production (i.e. no effect was observed).

P. aeruginosa H774 = assay type: cell-based, Pseudomonas aeruginosa; conditions: P. aeruginosa H744; nalidixic acid + peptide at ¼ MIC; 0.5 or less = synergy
Outline: (§2)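 FIC index, computed as 0.25 plus the ratio of combination to single-agent antibiotic MIC, defines synergy when 0.5 or below. Peptide fixed at one quarter MIC while chloramphenicol or nalidixic acid was serially diluted two-fold; antibiotic-alone MICs served as baselines.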

P. aeruginosa = assay type: cell-based, Pseudomonas aeruginosa; conditions: P. aeruginosa H744; MIC of nalidixic acid with peptide at ¼ MIC
Outline: as §2

P. aeruginosa H374 = assay type: cell-based, Pseudomonas aeruginosa; conditions: for MIC Cm-comb.: MIC of chloramphenicol with peptide at ¼ MIC; for MIC Nal-comb.: MIC of nalidixic acid with peptide at ¼ MIC; for FIC Index: 0.5 or less = synergy
Outline: as §2

[3] = system: yeast (Saccharomyces cerevisiae); experiment: Antimicrobial assay I, yeast assay in RPMI 1640; assay type: cell-based; conditions: RPMI 1640 media
in vitro = conditions: human, WI38 normal lung fibroblast cells, LD50 WI38, WI38 normal lung fibroblast line, MTT, 24 hours with peptide
S. pneumoniae C719 = experiment: Antimicrobial assays II, NCCLS broth microdilution MIC; assay type: cell-based, Streptococcus pneumoniae; conditions: mean of three, in µg/mL
S. pyogenes M76 = experiment: as above; assay type: cell-based, Streptococcus pyogenes; conditions: mean of three; 16 to 20 hours at 35° C.
[4] = chloramphenicol + peptide at ¼ MIC
[5] = nalidixic acid + peptide at ¼ MIC, FIC=0.25+MIC comb/MIC alone

Substance	WI38 LD50 (WI38) [µg/mL]	staph6538 (MIC) [1]	paerug9027 (MIC) [2]	LD50 MCF7 (MCF7) [µg/mL]	LD50 BMKC (BMKC)	H1299 LD50 (H1299) [µg/mL]	PC3 LD50 (PC3) [µg/mL]	LD50 SW480 (SW480)	HeLaS3 LD50 (HeLaS3)	Collagen stimulation (collagen) [%]	FIC Index (P. aeruginosa H774)	MIC Nal-comb. (P. aeruginosa) [µg/mL]	MIC Cm-comb. (P. aeruginosa H374) [µg/mL]	MIC Nal-comb. (P. aeruginosa H374) [µg/mL]	FIC Index (P. aeruginosa H374; [4])	FIC Index (P. aeruginosa H374; [5])	yeast (MIC or MFC) [3]	CC50 at 24 h (in vitro) [µg/mL]	S. pneumoniae MIC (S. pneumoniae C719)	S. pyogenes M76 MIC (S. pyogenes M76) [µg/mL]
MPKWKVFKKIEKVGRNIRNGIVKAGPAIAVLGEAKALG-NH2 [P12, reference compound]	950	> (> indicates greater than 200 μg/mL)	100 µg/mL	540	> (> indicates greater than 1000)	720	630	> (> indicates greater than 1000)	> (> indicates greater than 1000)	0	0.75	312	16	2500	1.25	0.75	> (> indicates greater than 200 μg/mL)	950		
FAVGLRAIKRALKKLRRGVRKVAKDL-NH2 [P157, reference compound]	500	200 µg/mL	> (> indicates greater than 200 μg/mL)	240	600 µg/mL	315	375	530 µg/mL	> (> indicates greater than 1000)		1.25	624	8	2500	0.75	0.75	> (> indicates greater than 200 μg/mL)	500	16	8
FALKALKKLKKALKKAL-NH2 [P153]	130	5 µg/mL	25 µg/mL	64	165 µg/mL	50	97	61 µg/mL	140 µg/mL	120	1.25	624	8	5000	0.75	1.25	100 µg/mL	130	8	2
